A word on the logP: it is a log measure of how a compound divides between an organic and an aqueous phase.

Here are results for five compounds from patent US8580556B2, “Sulfonylurea-responsive repressor proteins” (E. I. du Pont de Nemours and Company, priority 2008, dated 2013).

For data set [1] the following is noted: pH 7; cited from earlier work.
Data set [2] has as its system tet operator (tetO). The experiment in a line: Electrophoretic gel mobility shift assay (EMSA), tet operator binding. The conditions noted are these: ethametsulfuron repressor protein (L7A11) with TetO DNA; FIG. 7. Background: In EMSA bound probe runs differently from free probe, usually more slowly.
The test system of data set [3] is tetA promoter (PtetA)-lacZ reporter in E. coli KM3. The data set is classed as cell-based. To be noted: L1 hits; 20 μg/ml.
Data set [4] concerns tobacco BY-2 cell culture. The experiment in a line: Tobacco BY-2 cell culture (dMMV-HRA) sulfonylurea resistance. The data set is classed as cell-based, N. tabacum. To be noted: 200 ppb chlorsulfuron. From the text: In addition to the leaf assay it was desired to have an in planta assay to enable high throughput screening of SuR libraries for optimal plant functionality. We designed a system similar to the leaf assay but using tobacco BY-2 cell culture in 96-well format. BY-2 cell culture was transformed with a dMMV-HRA construct such that the culture would withstand treatment with target sulfonylurea test compounds.

Molecules are shown by their SMILES.

As for `COC(=O)c1sccc1S(=O)(=O)NC(=O)Nc1nc(C)nc(OC)n1` [Harmony®, thifensulfuron-methyl], in data set [1], the logP is around 0.02.
On to `Cc1c2c(c(O)c3c(O)cccc13)C(=O)[C@]1(O)C(=O)C(C(N)=O)=C(O)[C@@H](N(C)C)[C@@H]1C2` [atc, anhydrotetracycline], for which, in data set [2], the “release of repressor from operator sequence by inducer” value is “No change in operator release”.
Take `CCOC(=O)c1ccccc1S(=O)(=O)NC(=O)Nc1nc(Cl)cc(OC)n1` [chlorimuron, Chlorimuron-ethyl, reference compound]: in data set [3], the “activator potency compared with the starting ligand Harmony®” value was “more potent activators”.
For `COc1nc(C)nc(NC(=O)NS(=O)(=O)c2ccccc2Cl)n1` [chlorsulfuron, 2 chloro N ((4 methoxy 6 methy 1,3,5 triazine 2 yl)aminocarbonyl)benzenesulfonamide, reference compound], the “activator potency compared with the starting ligand Harmony®” value in data set [3] is “more potent activators”. In data set [4], the “growth of dMMV-HRA transformed BY-2 cell line” value is reported as “fully resistant”.
`CCOc1nc(NC)nc(NC(=O)NS(=O)(=O)c2ccccc2C(=O)OC)n1` [ethametsulfuron, Ethametsulfuron-methyl, reference compound]: the “activator potency compared with the starting ligand Harmony®” value in data set [3] is reported as “more potent activators”. Besides, in data set [2], the “release of repressor from operator sequence by inducer” value is on record as “inducer preference for operator release”.
